The record followed here is patent US20240109877A1, “PYRIMIDINES FOR DEGRADING BRUTON'S TYROSINE KINASE” (AbbVie Inc., priority 2022, published 2024).

Structures are written as SMILES.

In test [1] the target is Human BTK enzyme, wild-type (Homo sapiens (Human), UniProt Q06187). Nature of the test: BTK Screening: Btk kinase activity, electrophoretic mobility shift assay (MSA). The note with it: 0.5 nM BTK enzyme, 50 μM ATP, 15 minutes pre-incubation, 3 hours at 25° C. In kind it is biochemical. As for the experimental part:
Btk kinase activity was measured in vitro using an electrophoretic mobility shift assay (MSA). The ability of Btk to phosphorylate a fluorescent peptide substrate (FAM-GEEPLYWSFPAKKK-NH2) was measured. The kinase reactions were assembled in a total volume of 25 μL per well in 384 well plates. The following was added to each well: compound buffer (or control); enzyme buffer; and substrate buffer, as further described below.
Specifically the following was added: (1) compound buffer or control: 5μL of 5× compound buffer [(5× compound buffer comprised of: 1× Master Buffer, X μM test compound in 5% dimethyl sulfoxide; (2× Master Buffer comprised of 200 mM HEPES, pH7.5, 0.2% BSA, and 0.02% Triton X-100)]; and (2) enzyme buffer: 10 μL of 2.5× enzyme buffer (1× Master Buffer, 12.5 mM MgCl2, 2.5 mM DTT, 25 μM sodium orthovanadate, 25 μM beta-glycerophosphate, and 1.25 nM BTK enzyme). Human BTK enzyme Nanosyn-293HEK, wild-type, available from Nanosyn, Santa Clara, CA). Enzyme and compound were pre-incubated for 15 minutes. Additionally, the following was added: (3) substrate buffer: 10 μL of 2.5× substrate buffer (1× Master Buffer, […], and 2.5 μM of the peptide substrate FAM). Each plate was incubated at 25° C. for 3 hours. The reaction was terminated by adding to each well: 45 μL of 1.55× stop buffer (1× Master Buffer and 31 mM EDTA). The final reaction mixture was as follows: 100 mM HEPES, pH7.5; 0.1% BSA; 0.01% Triton X-100; 1 mM DTT; 5 mM MgCl2; 10 μM sodium orthovanadate; 10 μM beta-glycerophosphate; 50 μM ATP; 1% dimethyl sulfoxide (from compound); 1μM fluorescent peptide substrate and 0.5 nM BTK- enzyme. The terminated reactions were analyzed using a 12 channel LABCHIP® 3000 microfluidic detection instrument (available from Caliper Life Sciences, Waltham, MA). […] As substrate and product peptides were separated, two peaks of fluorescence were observed. Change in the relative fluorescence intensity of the substrate and product peaks was the parameter measured, reflecting enzyme activity. In the presence of an active compound, the ratio between product and substrate was altered. The signal of the product decreased, while the signal of the substrate increased. Capillary electrophoregrams (RDA acquisition files) were analyzed using HTS Well Analyzer software (available from Caliper Life Sciences, Waltham, MA).
Activity in each sample was determined as the product to sum ratio (PSR): P/(S+P), where P was the peak height of the product peptide and S was the peak height of the substrate peptide. For each compound, enzyme activity was measured at various concentrations (12 concentrations of compound spaced by 3× dilution intervals). Negative control samples (0% inhibition in the absence of an active compound) and positive control samples (100% inhibition, in the presence of 20 mM EDTA) were assembled in replicates of four and were used to calculate % inhibition values for each active compound at each concentration. Percent inhibition (Pinh) was determined using following equation: Pinh=(PSR0%−PSRinh)/(PSR0%−PSR100%)*100, where PSRinh was the product sum ratio in the presence of inhibitor, PSR0% was the average product sum ratio in the absence of active compound and PSR100% was the average product sum ratio in 100%-inhibition control samples.
The IC50 values of active compounds were determined by 4 parameter sigmoidal dose response model fitting of the inhibition curves (Pinh versus inhibitor concentration) using XLfit® 4 software (IDBS, Boston, MA). The IC50 values are reported in Table 2 in the BTK IC50 (nM) column.

Test [2] has as its target His-tagged Cereblon/DDB1 complex (Homo sapiens (Human), UniProt Q96SW2). Briefly: Cereblon Binding Assay (AlphaLISA Human Cereblon Binding Kit, competition). The note with it: 10 μM top dose, biotin-labeled ligand competition; read-out: CRBN IC50. As for the experimental part:
Cereblon binding was measured in vitro using an AlphaLISA® Human Cereblon Binding Kit (PerkinElmer, Waltham, MA) according to the manufacturer's protocol (“Alpha” refers to Amplified Luminescent Proximity Homogeneous Assay). In this assay, donor beads and acceptor beads come into proximity through ligand binding to CRBN protein. Excitation of the donor beads provokes the release of singlet oxygen that triggers a cascade of energy transfer reactions to the acceptor beads, resulting in a sharp peak in light emission at 615 nm.
Specifically, nickel chelate acceptor beads (PerkinElmer AL108M) were used to capture a 6XHIS-tagged CRBN protein, and streptavidin-coated donor beads (PerkinElmer 6760002) were used to capture 50 nM biotinylated ligand. Each well included the following: sample or control; HIS-tagged CRBN protein; biotinylated ligand; nickel chelate acceptor beads; and streptavidin donor beads.
Competition Assay: Test compounds in 100% dimethyl sulfoxide were plated onto white, low volume 384 well plates (PerkinElmer Proxiplate 384 plus # 6008289) using an Labcyte Echo acoustic dispenser, in an 11-point dose curve and 3-fold dilution scheme. […] Plates were incubated for 30 minutes at room temperature.
Detection: 10 μL detection reagents were added in low light conditions containing nickel chelate acceptor beads and streptavidin donor beads (Perkin Elmer 6760002), resulting in a final concentration 20 ng/ml. Plates were incubated 1 hour and read on a PerkinElmerTM Envision™ plate reader (680 nm excitation and […] settings). The IC50 of each compound was determined by calculating percent inhibition from no drug and no protein controls, and the Ki of each compound was calculated using the Cheng-Prusoff transformation. From the IC50 values were determined. The IC50 values are reported in Table 2 in the CRBN IC50 (nM) column.

In test [3] the target is BTK protein in human whole blood (Homo sapiens (Human), UniProt Q06187). Nature of the test: Btk protein in human whole blood MSD ELISA based assay (Btk degradation). The settings on record: human whole blood from healthy donors, 6 hours at 37° C., half maximal degradation concentration; read-out: hWB BTK DC50. In kind it is cell-based. As for the experimental part:
Btk protein degradation was tested using an Meso Scale Discovery-ELISA system (MSD-ELISA): (1) Test compounds were added to human whole blood; (2) human whole blood cells treated with test compounds were lysed; (3) lysed cells were treated with capture antibody, an antibody to Btk; (4) lysed cells were treated with […] to Btk; and (5) lysed cells were treated with anti-mouse antibody (tagged).
Specifically, about 80 μl of fresh human whole blood from healthy donors was transferred into each well of a 96-well V-bottom plate (Costar, Cat No.3894). Using a TECANTM D300e Digital Dispenser (Tecan)), 1:4 serially diluted compounds [(8 pt assay) in DMSO solution (final 0.2%) starting at 3 μM top concentration], were added in duplicate. Thereafter, plates were placed in a 37° C. incubator and incubated for 6 hours.
At the end of incubation, 80 μl of 2× CST lysis buffer (Cell Signaling Technology, Cat No. 9803), prepared from a 10× stock solution, was added per well to lyse the blood. Plates were then sealed with a plate sealer and the samples were frozen overnight at −80° C.
Total amount of BTK protein remaining in the blood samples after compound treatment was measured using MSD-ELISA. After thawing the frozen plates, blood lysates were mixed thoroughly and transferred to small spot high-bind MSD plates (Meso Scale Discovery, Cat No. L45XB-3) and coated with capturing antibody, rabbit anti-human BTK (D3H5) (Cell Signaling Technology, Cat No. 8547CF). Thereafter, primary detection antibody, mouse anti-human BTK monoclonal antibody, (BD Biosciences, Cat No. 611117) and secondary detection antibody, anti-mouse SULFO-TAG (Meso Scale Discovery, Cat No. R32AC-1) were added. The assay plates were read on an MSD S600 plate reader by the addition of 2× MSD read buffer (Meso Scale Discovery, R92TC-1). All reagent transfers, including blood lysis, was conducted using a Biomed i7 liquid handler. From the dose response curves, DC50 values were calculated by averaging data from duplicate experiments. and Curve fitting was done by non-linear regression using GraphPad Prism. The DC50 values are reported in Table 2 in the hWB BTK DC50 (nM) column The Dmax values represent the maximum amount of BTK degradation observed upon compound treatment compared to DMSO only treated samples. The dMax (%) values are reported in Table 2 in the hWB BTK dMax (%) column.

For `COC[C@H]1CN(CCc2ccc(N3CCC(=O)NC3=O)cc2)CCN1c1ccc(Nc2cc(-c3ccc([C@@H](C)NC(=O)c4nc(C(C)(C)C)no4)c(C)c3)ncn2)nc1` [Example 15, 3-tert-butyl-N-[(1R)-1-{4-[6-({5-[(2R)-4-{2-[4-(2,4-dioxo-1,3-diazinan-1-yl)phenyl]ethyl}-2-(methoxymethyl)piperazin-1-yl]pyridin-2-yl}amino)pyrimidin-4-yl]-2-methylphenyl}ethyl]-1,2,4-oxadiazole-5-carboxamide], the IC50 was 0.0986 nM in test [1] and at least 10000 nM in test [2]. Further, in test [3], the DC50 came to 4.21 nM.
Turning to `C[C@@H](NC(=O)c1nc(C(C)(C)C)no1)c1ccc(-c2cc(Nc3ccc(N4CCN(CCc5ccc(N6CCC(=O)NC6=O)cc5)C[C@@H]4C)cn3)ncn2)cc1C(F)(F)F` [Example 16, 3-tert-butyl-N-[(1R)-1-{4-[6-({5-[(2S)-4-{2-[4-(2,4-dioxo-1,3-diazinan-1-yl)phenyl]ethyl}-2-methylpiperazin-1-yl]pyridin-2-yl}amino)pyrimidin-4-yl]-2-(trifluoromethyl)phenyl}ethyl]-1,2,4-oxadiazole-5-carboxamide], the IC50 was 0.438 nM in test [1] and at least 10000 nM in test [2]. Further, the half-maximal degradation concentration (DC50) in test [3] came to 14.2 nM.
For `C[C@@H](NC(=O)c1nc(C(C)(C)C)no1)c1ccc(-c2cc(Nc3ccc(N4CCN(CCc5ccc(N6CCC(=O)NC6=O)cc5)C[C@@H]4C)cn3)ncn2)cc1F` [Example 17, 3-tert-butyl-N-[(1R)-1-{4-[6-({5-[(2S)-4-{2-[4-(2,4-dioxo-1,3-diazinan-1-yl)phenyl]ethyl}-2-methylpiperazin-1-yl]pyridin-2-yl}amino)pyrimidin-4-yl]-2-fluorophenyl}ethyl]-1,2,4-oxadiazole-5-carboxamide], the IC50 is 0.103 nM in test [1] and 3870 nM in test [2]. The DC50 in test [3] is 4.13 nM.
